The NIST ThermoML archive (doi:10.1021/je060271a)

Details: 343.15 K, Liquid, Vibrating tube method

CCCCCCC(=O)OCC(COC(=O)CCCCCC)(COC(=O)CCCCCC)COC(=O)CCCCCC [pentaerythritol tetraheptanoate]
Details | mass density [kg/m3]
5115 kPa | 944.4
5119.1 kPa | 944.5
5124.1 kPa | 944.5
5128.3 kPa | 944.5
5132.4 kPa | 944.4
5136.3 kPa | 944.4
5141.1 kPa | 944.4
5145.3 kPa | 944.4
5149.6 kPa | 944.5
5153.6 kPa | 944.5
5158.6 kPa | 944.5
5162.9 kPa | 944.5
5167.1 kPa | 944.5
5172.1 kPa | 944.5
5176 kPa | 944.4
5180 kPa | 944.5
5184.4 kPa | 944.4
5189.9 kPa | 944.6
5193.9 kPa | 944.4
5198 kPa | 944.4
5202.4 kPa | 944.7
5206.5 kPa | 944.5
5211.7 kPa | 944.6
5216 kPa | 944.6
5220.2 kPa | 944.5
5225 kPa | 944.6
5229.2 kPa | 944.5
5233.5 kPa | 944.5
5237.6 kPa | 944.5
5243.2 kPa | 944.5
5247.3 kPa | 944.7
5251.8 kPa | 944.5
5256 kPa | 944.7
5260.8 kPa | 944.6
5265 kPa | 944.6
5269.7 kPa | 944.6
5273.8 kPa | 944.5
5277.8 kPa | 944.7
5281.4 kPa | 944.6
5285 kPa | 944.6
5291.6 kPa | 944.7
5300.3 kPa | 944.5
5308.9 kPa | 944.7
5319.5 kPa | 944.7
5328.6 kPa | 944.7
5337.3 kPa | 944.6
5348.2 kPa | 944.6
5357.2 kPa | 944.7
5366.4 kPa | 944.6
5375.7 kPa | 944.6
5386.4 kPa | 944.6
5395.4 kPa | 944.7
5406.3 kPa | 944.9
5415.5 kPa | 944.8
5425 kPa | 944.8
5434.7 kPa | 944.7
5444 kPa | 944.7
5453.7 kPa | 944.7
5464.8 kPa | 944.8
5473.8 kPa | 944.7
5485 kPa | 945
5494.5 kPa | 944.7
5504.2 kPa | 944.8
5513.7 kPa | 944.8
5525.5 kPa | 944.8
5535 kPa | 944.7
5544.7 kPa | 944.8
5554.7 kPa | 944.8
5568 kPa | 944.8
5576.2 kPa | 944.7
5587.6 kPa | 944.8
5597.4 kPa | 944.8
5607.3 kPa | 944.8
5619.2 kPa | 944.8
5629.1 kPa | 944.8
5639.1 kPa | 944.9
5650.9 kPa | 944.9
5660.8 kPa | 944.8
5671.1 kPa | 944.8
5681.5 kPa | 944.7
5694 kPa | 944.9
5705.1 kPa | 945
5715.3 kPa | 944.9
5725.9 kPa | 945
5737.8 kPa | 944.9
5748.4 kPa | 944.8
5758.7 kPa | 945
5771 kPa | 944.9
5781.7 kPa | 944.9
5791.9 kPa | 944.9
5802.8 kPa | 944.9
5815.5 kPa | 945.1
5826.5 kPa | 945
5837.6 kPa | 945.1
5848.7 kPa | 945
5862 kPa | 945
5872.5 kPa | 944.9
5883.3 kPa | 945
5894.5 kPa | 945.1
5907.6 kPa | 945.1
5918.9 kPa | 945
5930.1 kPa | 945.1
5941.2 kPa | 945
5954.7 kPa | 945.1
5965.7 kPa | 945.3
5977 kPa | 945
5990.6 kPa | 945.1
6002 kPa | 945
6013.3 kPa | 945.2
6026.9 kPa | 945.1
6038.5 kPa | 945.2
6050.1 kPa | 945.1
6063.9 kPa | 945.1
6075.5 kPa | 945.2
6087.4 kPa | 945.2
6099.2 kPa | 945.2
6113 kPa | 945.2
6125.1 kPa | 945.2
6137.2 kPa | 945.3
6149.3 kPa | 945.1
6163.7 kPa | 945.3
6175.6 kPa | 945.3
6187.7 kPa | 945.2
6199.8 kPa | 945.2
6214.5 kPa | 945.3
6226.9 kPa | 945.3
6239.4 kPa | 945.3
6253.9 kPa | 945.3
6266.1 kPa | 945.3
6278.6 kPa | 945.3
6293.3 kPa | 945.3
6306.2 kPa | 945.3
6319 kPa | 945.5
6332 kPa | 945.3
6347 kPa | 945.4
6359.8 kPa | 945.5
6372.6 kPa | 945.4
6385.6 kPa | 945.4
6400.6 kPa | 945.4
6413.9 kPa | 945.4
6426.9 kPa | 945.3
6442.4 kPa | 945.3
6456.1 kPa | 945.4
6469 kPa | 945.5
6482.7 kPa | 945.4
6499.1 kPa | 945.6
6512.8 kPa | 945.5
6525.9 kPa | 945.5
6541.8 kPa | 945.6
6555.1 kPa | 945.6
6568.9 kPa | 945.6
6585.3 kPa | 945.5
6598.8 kPa | 945.5
6612.5 kPa | 945.5
6629.2 kPa | 945.6
6643.2 kPa | 945.5
6657.6 kPa | 945.7
6671.9 kPa | 945.5
6687.1 kPa | 945.5
6704 kPa | 945.6
6718.4 kPa | 945.6
6732.5 kPa | 945.6
6747.4 kPa | 945.7
6764.3 kPa | 945.8
6779.2 kPa | 945.8
6793.5 kPa | 945.7
6811.1 kPa | 945.6
6825.8 kPa | 945.6
6840.7 kPa | 945.8
6855.9 kPa | 945.7
6874.2 kPa | 945.8
6887.1 kPa | 945.8
6904.9 kPa | 945.9
6920.2 kPa | 945.8
6935.6 kPa | 945.8
6953.6 kPa | 945.8
6968.8 kPa | 945.9
6984.8 kPa | 945.8
7000.2 kPa | 945.7
7019.2 kPa | 946
7034.9 kPa | 945.7
7050.8 kPa | 945.8
7069.3 kPa | 945.8
7085.7 kPa | 945.9
7101.8 kPa | 945.9
7117.8 kPa | 946
7137.2 kPa | 945.9
7153.2 kPa | 946
7169.6 kPa | 945.9
7186 kPa | 945.8
7205.5 kPa | 945.9
7221.8 kPa | 946
7241.8 kPa | 946
7258.6 kPa | 946
7275.1 kPa | 945.9
7292.1 kPa | 946.1
7312.3 kPa | 946.1
7329.7 kPa | 946.2
7347 kPa | 946.1
7364.6 kPa | 946.1
7385.1 kPa | 946.1
7402.4 kPa | 946.2
7420 kPa | 946.2
7437.8 kPa | 946.2
7458.7 kPa | 946.2
7476.1 kPa | 946.2
7494.2 kPa | 946.1
7515.3 kPa | 946.3
7533.4 kPa | 946.1
7551.9 kPa | 946.3
7570.4 kPa | 946.3
7592.1 kPa | 946.3
7610.3 kPa | 946.4
7628.9 kPa | 946.4
7650.8 kPa | 946.3
7669.1 kPa | 946.3
7688.1 kPa | 946.3
7710.2 kPa | 946.3
7729.2 kPa | 946.3
7748.3 kPa | 946.4
7767.5 kPa | 946.4
7790.8 kPa | 946.4
7810.5 kPa | 946.5
7830.3 kPa | 946.5
